The nature of data set [1]: in vivo. To be noted: rat, po, 10 mg/kg.
The nature of data set [2]: in vivo. To be noted: rat, po, 10 mg/kg. This is another data set of the same source.
The nature of data set [3]: in vitro. To be noted: rat, liver microsomes.
Data set [4] in a line: in vitro. To be noted: human, liver microsomes. A general note: Liver microsomes are vesicles of endoplasmic reticulum, rich in cytochrome P450 enzymes.

Compound `Cc1cc(Nc2ncc(Cl)c(Nc3ccccc3S(=O)(=O)C(C)C)n2)c(OC(C)C)cc1C1CCNCC1` [CERITINIB] registered a Cmax in the data set “in vivo [1]” of 90 ng/mL. The AUC in “in vivo [2]” came to 1400 ng·h/mL. The amount remaining at 0.5 h, 1 µM in the data set “in vitro [3]” came out at 98%; in the data set “in vitro [4]”, 88%.

A word on the Cmax: it is the maximum level reached in the sampled fluid or tissue. As usually defined, the AUC is the area under the concentration-time curve, a measure of exposure. The fraction remaining is what is left of the initial amount, in per cent. Low readings indicate more turnover, high ones less turnover.

Source of the values: ChEMBL document CHEMBL4715694, “Discovery of novel tetrahydroisoquinoline-containing pyrimidines as ALK inhibitors” (Bioorg Med Chem, 2016).
